Data as given in ChEMBL document CHEMBL1201862, “PubChem BioAssay data set” (2004).
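How tested: cells in 96-well plates exposed to compound for 48 hours at five concentrations. GI50 = concentration required for 50% inhibition of growth.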 Calls of active or inactive are those of the source. No stated cut-off is given here; in the data, active = GI50 up to about 1.1 µM and inactive = higher.

Key:
Test in all cases: DTP human tumour cell line panel, 48 h
786-0 = test system: 786-0
A549 = test system: A549
CAKI-1 = test system: CAKI-1
COLO 205 = test system: COLO 205
DLD-1 = test system: DLD-1
DMS-273 = test system: DMS-273
EKVX = test system: EKVX
HCC 2998 = test system: HCC 2998
HCT-15 = test system: HCT-15
HOP-18 = test system: HOP-18
HOP-62 = test system: HOP-62
HT-29 = test system: HT-29
IGROV-1 = test system: IGROV-1
K562 = test system: K562
KM-20L2 = test system: KM-20L2
KM12 = test system: KM12
LOX IMVI = test system: LOX IMVI
M14 = test system: M14
M19-MEL = test system: M19-MEL
Malme-3M = test system: Malme-3M
NCI-H23 = test system: NCI-H23
OVCAR-4 = test system: OVCAR-4
OVCAR-5 = test system: OVCAR-5
OVCAR-8 = test system: OVCAR-8
RPMI-8226 = test system: RPMI-8226
RXF 393 = test system: RXF 393
SF-268 = test system: SF-268
SF-295 = test system: SF-295
SF-539 = test system: SF-539
SK-MEL-28 = test system: SK-MEL-28
SK-MEL-2 = test system: SK-MEL-2
SK-OV-3 = test system: SK-OV-3
SN12C = test system: SN12C
SNB-19 = test system: SNB-19
SNB-75 = test system: SNB-75
SNB-78 = test system: SNB-78
TK-10 = test system: TK-10
U-251 = test system: U-251
UACC-257 = test system: UACC-257
UACC-62 = test system: UACC-62
UO-31 = test system: UO-31
XF498 = test system: XF498

Measured: GI50

CC[P+](C)(Cc1ccccc1)c1ccccc1.O=C(OC(C(=O)[O-])C(OC(=O)c1ccccc1)C(=O)O)c1ccccc1 (configuration not stated)
inactive: 786-0 > 100 µM | A549 > 100 µM | CAKI-1 > 100 µM | COLO 205 > 100 µM | DLD-1 > 100 µM | DMS-273 > 100 µM | EKVX > 100 µM | HCC 2998 > 100 µM | HOP-18 5.47 µM | HOP-62 > 100 µM | HT-29 > 100 µM | IGROV-1 > 100 µM | K562 > 100 µM | KM-20L2 > 100 µM | KM12 > 100 µM | LOX IMVI > 100 µM | M14 > 100 µM | M19-MEL > 100 µM | Malme-3M > 100 µM | NCI-H23 > 100 µM | OVCAR-4 > 100 µM | OVCAR-5 > 100 µM | OVCAR-8 > 100 µM | RPMI-8226 > 100 µM | RXF 393 > 100 µM | SF-268 > 100 µM | SF-295 > 100 µM | SF-539 > 100 µM | SK-MEL-28 > 100 µM | SK-MEL-2 > 100 µM | SK-OV-3 > 100 µM | SN12C > 100 µM | SNB-19 > 100 µM | SNB-75 > 100 µM | SNB-78 > 100 µM | TK-10 > 100 µM | U-251 > 100 µM | UACC-257 > 100 µM | UACC-62 > 100 µM | UO-31 > 100 µM | XF498 > 100 µM
> 100 µM: HCT-15
